This is an account of results in publication PMC3325286, “Structural and Functional Diversity of Acidic Scorpion Potassium Channel Toxins” (PLoS ONE, 2012).

Positions of bridges follow the written chain, without caps; N, C: chain ends. Residues, ends and D or L forms follow the SMILES beside them.

For assay [1], the system named is Kv1.x channel. Particulars: cited from earlier work.
Assay [2] has as its target T1, KCNQ1 channel (Homo sapiens, UniProt P15382+P51787).
Assay [3] concerns the target T1, KCNQ1 channel. Put plainly: cell-based. The conditions noted are these: HEK293, read-out: Inhibition of KCNQ1 channel current.

T1 sequence (P51787 whole entry, looked up): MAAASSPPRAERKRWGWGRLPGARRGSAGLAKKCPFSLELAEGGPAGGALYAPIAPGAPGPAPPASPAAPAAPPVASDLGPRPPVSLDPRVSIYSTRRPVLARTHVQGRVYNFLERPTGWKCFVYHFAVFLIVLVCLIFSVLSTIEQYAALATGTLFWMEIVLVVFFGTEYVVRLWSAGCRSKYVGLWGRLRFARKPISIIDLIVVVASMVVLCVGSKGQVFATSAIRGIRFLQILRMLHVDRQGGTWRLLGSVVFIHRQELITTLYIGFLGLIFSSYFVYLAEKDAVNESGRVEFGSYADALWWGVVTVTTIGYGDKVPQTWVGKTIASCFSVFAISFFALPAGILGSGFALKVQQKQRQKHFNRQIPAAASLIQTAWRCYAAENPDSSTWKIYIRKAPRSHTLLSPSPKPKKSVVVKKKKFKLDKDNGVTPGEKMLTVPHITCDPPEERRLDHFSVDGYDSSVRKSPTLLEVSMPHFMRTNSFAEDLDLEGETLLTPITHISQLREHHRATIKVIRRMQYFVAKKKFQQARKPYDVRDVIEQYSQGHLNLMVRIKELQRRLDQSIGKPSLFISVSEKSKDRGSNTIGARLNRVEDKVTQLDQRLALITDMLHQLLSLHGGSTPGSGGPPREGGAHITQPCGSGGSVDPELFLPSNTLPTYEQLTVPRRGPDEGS

As a reminder, the inhibition is the percentage by which the read-out fell short of the control. In the case of `CC[C@H](C)[C@@H]1NC(=O)[C@H](C(C)C)NC(=O)[C@@H]2CSSC[C@@H]3NC(=O)[C@H](CCCCN)NC(=O)[C@H](CCC(N)=O)NC(=O)[C@@H]4CCCN4C(=O)CNC(=O)[C@H](CC(=O)O)NC(=O)[C@H](CSSC[C@H](NC(=O)[C@H](CO)NC(=O)[C@H](CCC(=O)O)NC(=O)[C@H](CCCCN)NC(=O)[C@@H]4CCCN4C(=O)[C@H](CCC(=O)O)NC(=O)[C@H](CCC(=O)O)NC(=O)[C@@H](N)CC(=O)O)C(=O)N[C@@H](CO)C(=O)N[C@@H](CC(=O)O)C(=O)N[C@@H](CCC(=O)O)C(=O)N[C@@H](CCSC)C(=O)N2)NC(=O)[C@H](C(C)C)NC(=O)CNC(=O)[C@H]([C@@H](C)O)NC(=O)[C@H](CO)NC(=O)[C@H](Cc2ccc(O)cc2)NC(=O)[C@H](CCC(=O)O)NC(=O)[C@H](CCC(=O)O)NC(=O)CNC(=O)[C@H](CCCCN)NC(=O)[C@H](CSSC[C@@H](C(=O)N[C@@H](CO)C(=O)N[C@@H](CC(=O)O)C(=O)O)NC(=O)[C@H](CCCCN)NC3=O)NC(=O)[C@H](Cc2ccc(O)cc2)NC1=O` [PbTx1, reference compound] (H-DEEPKESCSDEMCVIYCKGEEYSTGVCDGPQKCKCSD-OH; disulfide 8-27, 13-33, 17-35), the “Block of Kv1.x channel (in words)” value in assay [1] is “low activity (micromolar range)”. Moreover, the “Effect on KCNQ1 channel (in words)” value in assay [2] is listed as “only weak inhibitors”. Besides, the inhibition at 10 µM in assay [3] stood at 21.4%.
